Test results reported in patent US12290588B2, “Peptide having activity of improving skin condition and use thereof” (CAREGEN CO., LTD., priority 2019, dated 2025).

How the values were obtained:
PGC-1α = assay: RT-PCR of PGC-1α expression in fibroblasts; format: cell-based; details: NIH3T3 mouse fibroblasts, peptide 10, 50 or 100 μM, 24 hours, PCR (FIG. 2)
Procedure: (§1) In this example, an effect the peptide according to an embodiment on the cellular activity of fibroblasts was to be confirmed by measuring the expression levels of PPAR-γ, PPAR-δ, and PGC-1α, which are mitochondrial biogenesis-related genes. In detail, NIH3T3 mouse fibroblasts were seeded in a 6-well plate at a density of 3×10^5 cells/well, and cultured for 16 hours. Afterwards, the culture medium was replaced with a serum-free medium, the peptide consisting of the amino acid sequence of SEQ ID NO: 1 was added thereto at a concentration of 10 μM, 50 μM, or 100 μM, and the cells were cultured for 24 hours. Then, mRNA was extracted from the cultured cells, and reverse-transcribed into cDNA by using a cDNA synthesis kit and PCR pre-mix (Intron, Korea). Afterwards, a polymerase chain reaction (PCR) was performed by using the cDNA and primers of PPAR-γ, PPAR-δ, and PGC-1α. Meanwhile, a control group and positive groups were used in the same manner as in Example 2, and the nucleotide sequences of the primers used herein are shown in Table 2.

PPAR-γ = assay: RT-PCR of PPAR-γ expression in fibroblasts; format: cell-based; details: NIH3T3 mouse fibroblasts, peptide 10, 50 or 100 μM, 24 hours, PCR (FIG. 2)
Procedure: as §1

procollagen 1α = assay: Procollagen 1α ELISA in fibroblast medium; format: cell-based; details: NIH3T3 mouse fibroblasts, peptide 10, 50 or 100 μM, 24 hours, ELISA of medium (FIG. 1)
Procedure: NIH3T3 mouse fibroblasts were seeded in a 6-well plate at a density of 5×10^3 cells/well, and cultured for 16 hours. Afterwards, the culture medium was replaced with a serum-free medium, the peptide consisting of the amino acid sequence of SEQ ID NO: 1 was added thereto at a concentration of 10 μM, 50 μM, or 100 μM, and the cells were cultured for 24 hours. Then, the amount of procollagen 1α in the medium was measured by using a Procollagen 1α ELISA kit (Us biological lifescience, USA). Meanwhile, a non-treated group (Con) was used as a control group, and a group to which 100 nM of bFGF was added and a group to which 5 ng/ml of TGF-β1 was added were used as positive control groups.

AQP3 = assay: RT-PCR of AQP3 expression in UV-irradiated keratinocytes; format: cell-based, human; details: HaCaT keratinocytes, UV 20 J/cm^2, peptide 10, 50 or 100 μM before and 6 hours after irradiation, PCR (FIG. 7)
Procedure: (§2) In this example, changes in the cellular activity of fibroblasts were evaluated through the expression of Col1a1, Fibronectin, and Elastin, which are known as components of the dermis. Also, changes in the cellular activity of keratinocytes were evaluated through the expression of SIRT1, which is an anti-aging gene, and AQP3, which is a component of the skin barrier. Based on the evaluation results, the effect of the peptide according to an embodiment on the restoration of the cellular activity of the fibroblasts and keratinocytes was confirmed. In detail, NIH3T3 mouse fibroblasts or HaCaT human keratinocytes were respectively seeded in a 6-sell plate at a density of 3×10^5 cells/well, and cultured for 16 hours. Afterwards, the culture medium was replaced with a serum-free medium, the peptide consisting of the amino acid sequence of SEQ ID NO: 1 was added thereto at a concentration of 10 μM, 50 μM, or 100 μM, and the cells were cultured for 1 hour. Each well containing the cultured cells was washed with PBS, and the NIH3T3 cells or the HaCaT cells were respectively irradiated with ultraviolet light of 6 J/cm^2 or 20 J/cm^2, so as to induce inhibition of the cellular activity. […]

MMP-2 = assay: Gelatin zymography of MMP-2 activity in UV-irradiated fibroblasts; format: cell-based, mouse; details: NIH3T3 fibroblasts, UV 6 J/cm^2, peptide 10, 50 or 100 μM before and 24 hours after irradiation, gelatin zymography (FIG. 5)
Procedure: (§3) NIH3T3 mouse fibroblasts were seeded in a 6-well plate at a density of 3×10^5 cells/well, and cultured for 16 hours. Afterwards, the culture medium was replaced with a serum-free medium, the peptide consisting of the amino acid sequence of SEQ ID NO: 1 was added thereto at a concentration of 10 μM, 50 μM, or 100 μM, and the cells were cultured for 1 hour. Each well containing the cultured cells was washed with PBS, and the NIH3T3 cells were irradiated with ultraviolet light of 6 J/cm^2, so as to induce an increase in the expression of MMP-1 and MMP-2. Afterwards, the culture medium was replaced with a serum-free medium, the peptide consisting of the amino acid sequence of SEQ ID NO: 1 was added thereto at a concentration of 10 μM, 50 μM, or 100 μM, and the cells were cultured for 24 hours. Afterwards, cell lysates were obtained by adding a lysis buffer to the cultured cells, and then, western blotting was performed thereon by using MMP-1 antibodies (cell signaling, USA) to measure the expression of MMP-1.
Meanwhile, the cell lysates were subjected to gelatin zymography to measure the activity of MMP-2. In detail, after protein electrophoresis (SDS-PAGE) was performed by using 2 mg/ml of gelatin as a substrate. […]

SIRT1 = assay: RT-PCR of SIRT1 expression in UV-irradiated keratinocytes; format: cell-based, human; details: HaCaT keratinocytes, UV 20 J/cm^2, peptide 10, 50 or 100 μM before and 6 hours after irradiation, PCR (FIG. 7)
Procedure: as §2

IL-6 = assay: RT-PCR of IL-6 expression in UV-irradiated keratinocytes; format: cell-based, human; details: HaCaT keratinocytes, peptide 10, 50 or 100 μM for 1 hour, UV 15 J/cm^2, PCR (FIG. 8)
Procedure: (§4) HaCaT human keratinocytes were seeded in a 6-well plate at a density of 3×10^5 cells/well, and cultured for 16 hours. Afterwards, the culture medium was replaced with a serum-free medium, the peptide consisting of the amino acid sequence of SEQ ID NO: 1 was added thereto at a concentration of 10 μM, 50 μM, or 100 μM, and the cells were cultured for 1 hour. Each well containing the cultured cells was washed with PBS, and the HaCaT cells were irradiated with ultraviolet light of 15 J/cm^2, so as to induce an increase in the expression of inflammatory cytokine which is an inflammatory factor. Then, mRNA was extracted from the cultured cells, and reverse-transcribed into cDNA by using a cDNA synthesis kit and PCR pre-mix (Intron, Korea). Afterwards, PCR was performed by using the cDNA and primers of TNF-α, COX-2, IL-1β, and IL-6. Meanwhile, a control group and a positive group were used in the same manner as in Example 4, and the nucleotide sequences of the primers used herein are shown in Table 5.

Elastin = assay: RT-PCR of Elastin expression in UV-irradiated fibroblasts; format: cell-based, mouse; details: NIH3T3 fibroblasts, UV 6 J/cm^2, peptide 10, 50 or 100 μM before and 6 hours after irradiation, PCR (FIG. 6)
Procedure: as §2

TNF-α = assay: RT-PCR of TNF-α expression in UV-irradiated keratinocytes; format: cell-based, human; details: HaCaT keratinocytes, peptide 10, 50 or 100 μM for 1 hour, UV 15 J/cm^2, PCR (FIG. 8)
Procedure: as §4

PPAR-δ = assay: RT-PCR of PPAR-δ expression in fibroblasts; format: cell-based; details: NIH3T3 mouse fibroblasts, peptide 10, 50 or 100 μM, 24 hours, PCR (FIG. 2)
Procedure: as §1

MMP-1 = assay: Western blotting of MMP-1 in UV-irradiated fibroblasts; format: cell-based, mouse; details: NIH3T3 fibroblasts, UV 6 J/cm^2, peptide 10, 50 or 100 μM before and 24 hours after irradiation, western blotting (FIG. 5)
Procedure: as §3

cleaved caspase-3 [1] = assay: Western blotting of cleaved caspase-3 in UV-irradiated fibroblasts; format: cell-based, mouse; details: NIH3T3 fibroblasts, UV 6 J/cm^2, peptide 10, 50 or 100 μM before and 24 hours after irradiation, western blotting (FIG. 3)
Procedure: (§5) NIH3T3 mouse fibroblasts or HaCaT human keratinocytes were respectively seeded in a 6-sell plate at a density of 3×10^5 cells/well, and cultured for 16 hours. Afterwards, the culture medium was replaced with a serum-free medium, the peptide consisting of the amino acid sequence of SEQ ID NO: 1 was added thereto at a concentration of 10 μM, 50 μM, or 100 μM, and the cells were cultured for 1 hour. Each well containing the cultured cells was washed with phosphate buffered saline (PBS), and the NIH3T3 cells or HaCaT cells were respectively irradiated with ultraviolet light of 6 J/cm^2 or 15 J/cm^2, so as to induce an increase in the expression of apoptosis proteins. Afterwards, the culture medium was replaced with a serum-free medium, the peptide consisting of the amino acid sequence of SEQ ID NO: 1 was added thereto at a concentration of 10 μM, 50 μM, or 100 μM, and the cells were cultured for 24 hours. Cell lysates were obtained by adding a lysis buffer to the cultured cells, and then, western blotting was performed thereon by using cleaved PARP-1 and cleaved caspase-3 antibodies (Santacruz biotechnology, USA). Meanwhile, a non-treated group (Con) was used as a control group. […]

Fibronectin = assay: RT-PCR of Fibronectin expression in UV-irradiated fibroblasts; format: cell-based, mouse; details: NIH3T3 fibroblasts, UV 6 J/cm^2, peptide 10, 50 or 100 μM before and 6 hours after irradiation, PCR (FIG. 6)
Procedure: as §2

Col1a1 = assay: RT-PCR of Col1a1 expression in UV-irradiated fibroblasts; format: cell-based, mouse; details: NIH3T3 fibroblasts, UV 6 J/cm^2, peptide 10, 50 or 100 μM before and 6 hours after irradiation, PCR (FIG. 6)
Procedure: as §2

IL-1β = assay: RT-PCR of IL-1β expression in UV-irradiated keratinocytes; format: cell-based, human; details: HaCaT keratinocytes, peptide 10, 50 or 100 μM for 1 hour, UV 15 J/cm^2, PCR (FIG. 8)
Procedure: as §4

cleaved caspase-3 [2] = assay: Western blotting of cleaved caspase-3 in UV-irradiated keratinocytes; format: cell-based, human; details: HaCaT keratinocytes, UV 15 J/cm^2, peptide 10, 50 or 100 μM before and 24 hours after irradiation, western blotting (FIG. 4)
Procedure: as §5

COX-2 = assay: RT-PCR of COX-2 expression in UV-irradiated keratinocytes; format: cell-based, human; details: HaCaT keratinocytes, peptide 10, 50 or 100 μM for 1 hour, UV 15 J/cm^2, PCR (FIG. 8)
Procedure: as §4

cleaved PARP-1 = assay: Western blotting of cleaved PARP-1 in UV-irradiated keratinocytes; format: cell-based, human; details: HaCaT keratinocytes, UV 15 J/cm^2, peptide 10, 50 or 100 μM before and 24 hours after irradiation, western blotting (FIG. 4)
Procedure: as §5

ECEELEEK (Peptide 1) [SEQ ID NO: 1]
expression of PGC-1α (PGC-1α): increased
expression of PPAR-γ (PPAR-γ): increased
expression of procollagen 1α (procollagen 1α): increased
expression of AQP3 reduced by ultraviolet irradiation (AQP3): restored
activity of MMP-2 increased by ultraviolet irradiation (MMP-2): reduced
expression of SIRT1 reduced by ultraviolet irradiation (SIRT1): restored
expression of IL-6 increased by ultraviolet irradiation (IL-6): reduced
expression of Elastin inhibited by ultraviolet irradiation (Elastin): restored back to normal levels
expression of TNF-α increased by ultraviolet irradiation (TNF-α): reduced
expression of PPAR-δ (PPAR-δ): increased
expression of MMP-1 increased by ultraviolet irradiation (MMP-1): reduced
expression of cleaved caspase-3 increased by ultraviolet irradiation (cleaved caspase-3 [1]): reduced
expression of Fibronectin inhibited by ultraviolet irradiation (Fibronectin): restored back to normal levels
expression of Col1 a1 inhibited by ultraviolet irradiation (Col1a1): restored back to normal levels
expression of IL-1β increased by ultraviolet irradiation (IL-1β): reduced
expression of cleaved caspase-3 increased by ultraviolet irradiation (cleaved caspase-3 [2]): significantly reduced
expression of COX-2 increased by ultraviolet irradiation (COX-2): reduced
expression of cleaved PARP-1 increased by ultraviolet irradiation (cleaved PARP-1): significantly reduced
